In patent publication US10219516B2, “Molecules having pesticidal utility, and intermediates, compositions, and processes, related thereto” (priority 2015, dated 2019):
Read-outs that look alike come from different tables or passages of the source.

Assays:
[1] = tested on: Beet Armyworm (Spodoptera exigua, LAPHEG); test: Bioassay on Beet Armyworm (BAW), 128-well diet tray assay; format: in vivo
Method in brief: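 Second-instar larvae, one to five per well, placed on artificial diet surface-treated with 50 μg/cm^2 compound applied in 90:10 acetone-water and dried. Held 5–7 days at 25° C., 14:10 light-dark. Percent mortality recorded per well and averaged over eight wells.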

[2] = tested on: Cabbage Looper (Trichoplusia ni, TRIPNI); test: Bioassay on Cabbage Looper (CL), 128-well diet tray assay; format: in vivo; details: Trichoplusia ni
Method: Certain molecules disclosed in this document were tested against BAW and CL using procedures described in the following examples. In the reporting of the results, the “BAW & CL Rating Table” was used (See Table Section).
Bioassays on CL were conducted using a 128-well diet tray assay. one to five second instar CL larvae were placed in each well (3 mL) of the diet tray that had been previously filled with 1 mL of artificial diet to which 50 μg/cm^2 of the test molecule (dissolved in 50 μL of 90:10 acetone-water mixture) had been applied (to each of eight wells) and then allowed to dry. Trays were covered with a clear self-adhesive cover, vented to allow gas exchange, and held at 25° C., 14:10 light-dark for five to seven days. Percent mortality was recorded for the larvae in each well; activity in the eight wells was then averaged. The results are indicated in the table entitled “Table ABC: Biological Results” (See Table Section).

[3] = Beet Armyworm, 128-well diet tray assay, read-out: BAW rating
[4] = Cabbage Looper, 128-well diet tray assay, read-out: CL rating
[5] = Species BAW (Beet Armyworm), read-out: BAW (Biological Results, rating)
[6] = Species CL (Cabbage Looper), read-out: CL (Biological Results, rating)

Compound: N#CSc1ccc(NC(=O)c2cc(NC(=O)[C@H]3[C@H](c4cc(Cl)cc(Cl)c4)C3(Cl)Cl)ccc2Cl)cc1 (relative stereo) [PF45, trans-2-Chloro-5-(2,2-dichloro-3-(3,5-dichlorophenyl)cyclopropane-1-carboxamido)-N-(4-thiocyanatophenyl)benzamide]
- pest or weed control at 50 µg/cm2 [1, 3]: 50 to 100%
- pest or weed control at 50 µg/cm2 [2, 4]: 50 to 100%

Compound: Nc1c(F)ccc(NC(=O)c2cc(NC(=O)[C@H]3[C@H](c4ccc(Cl)c(Br)c4)C3(Cl)Cl)ccc2Cl)c1F (relative stereo) [F338, N-(3-Amino-2,4-difluorophenyl)-5-(trans-3-(3-bromo-4-chlorophenyl)-2,2-dichlorocyclopropane-1-carboxamido)-2-chlorobenzamide]
- pest or weed control at 50 µg/cm2 [1, 5]: 50 to 100%
- pest or weed control at 50 µg/cm2 [2, 6]: 50 to 100%

Compound: CN(C(=O)OC(C)(C)C)c1ccc(NC(=O)c2cc(NC(=O)[C@H]3[C@H](c4cc(Cl)cc(Cl)c4)C3(Cl)Cl)ccc2Cl)cc1 (relative stereo) [PF12, trans-tert-Butyl-(4-(2-chloro-5-(2,2-dichloro-3-(3,5-dichlorophenyl)cyclopropane-1-carboxamido)benzamido)phenyl)(methyl)carbamate]
- pest or weed control at 50 µg/cm2 [1, 3]: 50 to 100%
- pest or weed control at 50 µg/cm2 [2, 4]: 50 to 100%

Compound: O=C(Nc1c(F)cccc1F)c1cc(NC(=O)[C@H]2[C@H](c3cc(Br)cc(Br)c3)C2(Cl)Cl)ccc1Cl (relative stereo) [F92, trans-2-Chloro-5-(2,2-dichloro-3-(3,5-dibromophenyl)cyclopropane-1-carboxamido)-N-(2,6-difluorophenyl)benzamide]
- pest or weed control at 50 µg/cm2 [1, 5]: 50 to 100%
- pest or weed control at 50 µg/cm2 [2, 6]: 50 to 100%

Compound: N#Cc1ccc(NC(=O)c2cc(NC(=O)[C@H]3[C@H](c4cc(Cl)cc(Cl)c4)C3(Cl)Cl)ccc2Cl)c(F)c1 (relative stereo) [F144, trans-2-Chloro-N-(4-cyano-2-fluorophenyl)-5-(2,2-dichloro-3-(3,5-dichlorophenyl)cyclopropane-1-carboxamido)benzamide]
- pest or weed control at 50 µg/cm2 [1, 5]: 50 to 100%
- pest or weed control at 50 µg/cm2 [2, 6]: 50 to 100%

Compound: N#Cc1ccc(NC(=O)c2cc(NC(=O)[C@H]3[C@H](c4cc(Cl)c(Cl)c(Cl)c4)C3(Cl)Cl)ccc2Cl)c(F)c1 (relative stereo) [F104, trans-2-Chloro-N-(4-cyano-2-fluorophenyl)-5-(2,2-dichloro-3-(3,4,5-trichlorophenyl)cyclopropane-1-carboxamido)benzamide]
- pest or weed control at 50 µg/cm2 [1, 5]: 50 to 100%
- pest or weed control at 50 µg/cm2 [2, 6]: 50 to 100%

Compound: Nc1c(F)ccc(NC(=O)c2cc(NC(=O)C3C(c4cc(F)cc(Br)c4)C3(Cl)Cl)ccc2Cl)c1F (stereo not drawn) [F622, N-(3-Amino-2,4-difluorophenyl)-5-(3-trans-(3-bromo-5-fluorophenyl)-2,2-dichlorocyclopropane-1-carboxamido)-2-chlorobenzamide]
- pest or weed control at 50 µg/cm2 [1, 3]: 50 to 100%
- pest or weed control at 50 µg/cm2 [2, 4]: 50 to 100%

Compound: Nc1c(F)ccc(NC(=O)c2cc(NC(=O)C3C(c4cc(F)cc(C(F)(F)F)c4)C3(Cl)Cl)ccc2Cl)c1F (stereo not drawn) [F623, N-(3-Amino-2,4-difluorophenyl)-2-chloro-5-(2,2-dichloro-3-trans-(3-fluoro-5-(trifluoromethyl)phenyl)cyclopropane-1-carboxamido)benzamide]
- pest or weed control at 50 µg/cm2 [1, 3]: 50 to 100%
- pest or weed control at 50 µg/cm2 [2, 4]: 50 to 100%

Compound: O=C(Nc1ccc2c(ccn2Cc2ccccc2)c1)c1cc(NC(=O)[C@H]2[C@H](c3cc(Cl)cc(Cl)c3)C2(Cl)Cl)ccc1Cl (relative stereo) [F458, N-(1-Benzyl-1H-indol-5-yl)-2-chloro-5-(trans)-(2,2-dichloro-3-(3,5-dichlorophenyl)cyclopropane-1-carboxamido)benzamide]
- pest or weed control at 50 µg/cm2 [1, 3]: 50 to 100%
- pest or weed control at 50 µg/cm2 [2, 4]: 50 to 100%

Compound: CC(C)(C)OC(=O)n1ccc2cc(NC(=O)c3cc(NC(=O)[C@H]4[C@H](c5cc(Cl)cc(Cl)c5)C4(Cl)Cl)ccc3Cl)ccc21 (relative stereo) [F484, tert-Butyl 5-(2-chloro-5-(trans)-(2,2-dichloro-3-(3,5-dichlorophenyl)cyclopropane-1-carboxamido)benzamido)-1H-indole-1-carboxylate]
- pest or weed control at 50 µg/cm2 [1, 3]: 50 to 100%
- pest or weed control at 50 µg/cm2 [2, 4]: 50 to 100%

Compound: O=C(Nc1ccc(F)cc1)c1cc(NC(=O)[C@H]2[C@H](c3cc(Br)cc(Br)c3)C2(Cl)Cl)ccc1Cl (relative stereo) [F90, trans-2-Chloro-5-(2,2-dichloro-3-(3,5-dibromophenyl)cyclopropane-1-carboxamido)-N-(4-fluorophenyl)benzamide]
- pest or weed control at 50 µg/cm2 [1, 5]: 50 to 100%
- pest or weed control at 50 µg/cm2 [2, 6]: 50 to 100%

Compound: N#Cc1ccc(NC(=O)c2cc(NC(=O)[C@H]3[C@H](c4cc(Cl)cc(Cl)c4)C3(Cl)Cl)ccc2F)c(F)c1 (relative stereo) [F93, trans-N-(4-Cyano-2-fluorophenyl)-5-(2,2-dichloro-3-(3,5-dichlorophenyl)cyclopropane-1-carboxamido)-2-fluorobenzamide]
- pest or weed control at 50 µg/cm2 [1, 5]: 50 to 100%
- pest or weed control at 50 µg/cm2 [2, 6]: 50 to 100%

Compound: CN(C(=O)OC(C)(C)C)c1cc(NC(=O)c2cc(NC(=O)[C@H]3[C@H](c4cc(Cl)cc(Cl)c4)C3(Cl)Cl)ccc2Cl)ccc1F (relative stereo) [F471, trans-tert-Butyl (5-(2-chloro-5-(2,2-dichloro-3-(3,5-dichlorophenyl)cyclopropane-1-carboxamido)benzamido)-2-fluorophenyl)(methyl)carbamate]
- pest or weed control at 50 µg/cm2 [1, 3]: 50 to 100%
- pest or weed control at 50 µg/cm2 [2, 4]: 50 to 100%

Compound: O=C(Nc1ccc(NC(=O)c2cc(NC(=O)[C@H]3[C@H](c4cc(Cl)cc(Cl)c4)C3(Cl)Cl)ccc2Cl)cc1)c1ccccc1 (relative stereo) [PF104, trans-N-(4-Benzamidophenyl)-2-chloro-5-(2,2-dichloro-3-(3,5-dichlorophenyl)cyclopropane-1-carboxamido)benzamide]
- pest or weed control at 50 µg/cm2 [1, 3]: 50 to 100%
- pest or weed control at 50 µg/cm2 [2, 4]: 50 to 100%

Compound: O=C(Nc1c(F)cccc1F)c1cc(NC(=O)[C@H]2[C@H](c3cc(Cl)c(F)c(Cl)c3)C2(Cl)Cl)ccc1Cl (relative stereo) [F98, trans-2-Chloro-5-(2,2-dichloro-3-(3,5-dichloro-4-fluorophenyl)cyclopropane-1-carboxamido)-N-(2,6-difluorophenyl)benzamide]
- pest or weed control at 50 µg/cm2 [1, 5]: 50 to 100%
- pest or weed control at 50 µg/cm2 [2, 6]: 50 to 100%

Compound: O=C(Nc1ccc(C(F)(F)F)cc1)c1cc(NC(=O)[C@H]2[C@H](c3cc(Cl)cc(Cl)c3)C2(Cl)Cl)ccc1Cl (relative stereo) [F6, trans-2-Chloro-5-(2,2-dichloro-3-(3,5-dichlorophenyl)cyclopropane-1-carboxamido)-N-(4-(trifluoromethyl)phenyl)benzamide]
- pest or weed control at 50 µg/cm2 [1, 5]: 50 to 100%
- pest or weed control at 50 µg/cm2 [2, 6]: 50 to 100%

Compound: COCC(=O)Nc1ccc(NC(=O)c2cc(NC(=O)[C@H]3[C@H](c4cc(Cl)cc(Cl)c4)C3(Cl)Cl)ccc2Cl)cc1 (relative stereo) [PF27, trans-2-Chloro-5-(2,2-dichloro-3-(3,5-dichlorophenyl)cyclopropane-1-carboxamido)-N-(4-(2-methoxyacetamido)phenyl)benzamide]
- pest or weed control at 50 µg/cm2 [1, 3]: 50 to 100%
- pest or weed control at 50 µg/cm2 [2, 4]: 50 to 100%

Compound: CN(C(=O)c1cc(NC(=O)[C@H]2[C@H](c3cc(F)cc(Cl)c3)C2(Cl)Cl)ccc1Cl)c1ccc(F)cc1 (relative stereo) [PF2, trans-2-Chloro-5-(2,2-dichloro-3-(3-chloro-5-fluorophenyl)cyclopropane-1-carboxamido)-N-(4-fluorophenyl)-N-methylbenzamide]
- pest or weed control at 50 µg/cm2 [1, 3]: 50 to 100%
- pest or weed control at 50 µg/cm2 [2, 4]: 50 to 100%

Compound: N#Cc1ccc(NC(=O)c2cc(NC(=O)[C@H]3[C@H](c4cc(Cl)c(Cl)c(Cl)c4)C3(Cl)Cl)ccc2F)c(F)c1 (relative stereo) [F95, trans-N-(4-Cyano-2-fluorophenyl)-5-(2,2-dichloro-3-(3,4,5-trichlorophenyl)cyclopropane-1-carboxamido)-2-fluorobenzamide]
- pest or weed control at 50 µg/cm2 [1, 5]: 50 to 100%
- pest or weed control at 50 µg/cm2 [2, 6]: 50 to 100%

Compound: O=C(Nc1ccc(NC(=O)C2(C(F)(F)F)CC2)cc1)c1cc(NC(=O)[C@H]2[C@H](c3cc(Cl)cc(Cl)c3)C2(Cl)Cl)ccc1Cl (relative stereo) [PF162, trans-2-Chloro-5-(2,2-dichloro-3-(3,5-dichlorophenyl)cyclopropane-1-carboxamido)-N-(4-(1-(trifluoromethyl)cyclopropane-1-carboxamido)phenyl)benzamide]
- pest or weed control at 50 µg/cm2 [1, 3]: 50 to 100%
- pest or weed control at 50 µg/cm2 [2, 4]: 50 to 100%

Compound: CNc1ccc(NC(=O)c2cc(NC(=O)[C@H]3[C@H](c4cc(Cl)c(OC)c(Cl)c4)C3(Cl)Cl)ccc2Cl)cc1 (relative stereo) [F182, trans-2-Chloro-5-(2,2-dichloro-3-(3,5-dichloro-4-methoxyphenyl)cyclopropane-1-carboxamido)-N-(4-(methylamino)phenyl)benzamide]
- pest or weed control at 50 µg/cm2 [1, 5]: 50 to 100%
- pest or weed control at 50 µg/cm2 [2, 6]: 50 to 100%

Compound: O=C(Nc1c(F)cccc1F)c1cc(NC(=O)C2C(c3cc(Cl)cc(Cl)c3)C2(Cl)Br)ccc1Cl (stereo not drawn) [F168, 5-(trans)-2-Bromo-2-chloro-3-(3,5-dichlorophenyl)cyclopropane-1-carboxamido)-2-chloro-N-(2,6-difluorophenyl)benzamide]
- pest or weed control at 50 µg/cm2 [1, 5]: 50 to 100%
- pest or weed control at 50 µg/cm2 [2, 6]: 50 to 100%
